Assay results published in US20030087861A1, “Combined approach to treatment of cancer using a c-myc antisense oligomer” (priority 2001, published 2003).

Assays:
[1] = test system: Lewis lung carcinoma (LLC1) tumors; assay: Lewis lung carcinoma (LLC1) subcutaneous tumor model, tumor area growth and tumor mass; assay type: in vivo, C57BL/6J mice; set-up: Tumor Growth Rate (TGR): unit not given beside the values; details: for Tumor Mass (gm ± STE): LLC1 tumor bearing mice, IP dosing per Table 2, combinations in alternating regimen (chemotherapy days 2-4, 14-16; PMO days 6-12, 18-23), mass at euthanization; for Tumor Growth Rate (TGR): linear regression of change in tumor area day 14 to 25, slope ± standard deviation, IP dosing per Table 2, combinations in alternating regimen; for % of Saline TGR: tumor growth rate relative to saline group, combinations in alternating regimen; for antitumor effect / tumor growth (in words): single agent, or staggered (alternating) regimen with the PMO after chemotherapy
Experimental: Examples are described in Smith et al., 2000. The model is based on the transplantation of Lewis lung cells (LLC1), a highly tumorigenic lung carcinoma cell line, into syngeneic […] mice. LLC1 produce discernable tumors by day 4 when 200,000 cells are transplanted subcutaneously onto the right flanks of C57-BL mice. Therapeutic efficacy was evaluated based on daily caliper measurements of tumor length and width and tumor weights at the end of 25 day studies. A 20 base PMO antisense to c-myc mRNA (AVI-4126, SEQ ID NO:1) was evaluated for efficacy in the model. […] AVI-4126 was also administered i.p. (300 μg/mouse/day) in combination with chemotherapy. Co-administration of cisplatin (83 μg/mouse/day) on days 2-4 and 13-15 with AVI-4126 on days 2-8 and 13-19 had no additional effect on tumor growth inhibition versus cisplatin alone (Example 1).
Tumor cells. The Lewis lung cell line (LLC1) used in the studies described herein was derived from the Lewis lung carcinoma established in 1951 by Dr. M. R. Lewis and has been utilized for the evaluation of cancer chemotherapeutic agents Mayo, 1972; Bertram et al., 1980). Lewis lung carcinoma cells (ATCC, Manassas, Va.) were maintained in DMEF-12 medium supplemented with 10% fetal bovine serum, penicillin (100 units/mL), streptomycin (100 μg/mL), and amphotericin (0.25 μg/mL) at 37° C. in a 5% CO2/95% air humidified incubator. Cells were harvested as an approximately 70% confluent culture of log growth phase at the time of transplant and were injected as a cell suspension in media at a concentration of 200,000 cells per 100 μl injection.
Syngeneic mice. C57BL/6J mice (Simonsen, Gilroy, Calif.) weighing 22 to 24 g were housed in sterile plastic cages at the Laboratory Animal Resources Facility at Oregon State University (OSU), Corvallis, Oreg. Mice were given access to rodent chow (Harlan Teklad, Madison, Wis.) and tap water ad libitum and exposed to 12 hour light/dark cycles. All animal protocols conformed to the ethical guidelines of the 1975 Declaration of Helsinki and were approved by the ‘Institutional Animal Care and Use Committee’ of OSU.
Statistical Analysis. All data are reported as the mean ±SEM were determined by the computer program InStat2 (GraphPad, San Diego). The p values were calculated by InStat2 using ANOVA and the Tukey multiple comparison test. Graphs, linear regression, and slopes were generated using Prism v2.0 (GraphPad).
Tumor studies with AVI-4126 and Chemotherapy Following a 5 day acclimation period, C57BL/6J mice (Simonsen, Gilroy, CA) cared for as set forth above, were anesthetized with isoflurane, shaved, and injected subcutaneously in the right rear flank with approximately 200,000 viable LLC1 cells (study day 0). Injection sites were monitored daily to ensure that solid, homogeneous tumor growth was consistently obtained 4 days after LLC1 cell injection. Chemotherapy injections were prepared fresh daily before i.p injection (see Table 1). All PMO's and cisplatin (Sigma, St. Louis, Mo.) were dissolved in sterile, apyrogenic saline (Sigma) adjusted to an injection volume of 0.1 ml. A Taxol stock solution (6 mg/ml in Cremophore EL and ethanol, Bristol Myers Squibb, Syracuse, N.Y.) was diluted to 1 mg/ml in 1× PBS prior to injection. Etoposide (Sigma) stock solutions were prepared by dissolving in 70% ethanol at 11 mg/ml followed by dilution with saline to a final concentration of 5 mg/ml. 5-FU (Calbiochem) was dissolved in saline at a concentration of 12.5 mg/ml.
Animals were treated as described. Therapeutic efficacy was evaluated based on daily measurement of tumor area (length x width, cm^2) with digital calipers and tumor mass determined at the time of euthanization. Mice in all studies were euthanized by asphyxiation with CO2 on the final day of PMO treatments. […]

[2] = ICP-MS detection and quantitation of platinum/cisplatin in LLC1 tumor tissue; assay type: in vivo, C57BL/6J mice; details: data not shown
Experimental: ICP-MS Detection and Quantitation of platinum/cisplatin. A 200 μL aliquot of tissue lysate (40 mg of LLC1 tumor tissue) was dissolved in 1.33 mL of aqua regia followed by a 10 fold dilution. The samples were then analyzed by ICP-MS technique for the presence of Pt according to the method of Long et al (16) by Anatek Labs (Moscow, ID).

[3] = set-up: species or system C57BL/6J mice; details: mouse, in vivo, ip
Experimental: HPLC detection of AVI-4126 in LLC1 tumor tissue. The presence of AVI-4126 in tumor tissue lysates (prepared 4 hours after a single injection of 100 μg of AVI-4126 into tumor bearing mice) was determined via a 5′-flouresceinyl DNA:AVI-4126 (FDNA:AVI-4126) duplex detection method developed at AVI BioPharma (Corvallis, Oreg.). Briefly, 500 ng of internal standard (10 μl of a […] of 0.025M Tris buffer, pH=8) of a 15mer internal PMO standard complementary to the FDNA probe (5′-GAGGGGCATCGTCGC-3′ (SEQ ID NO: 14)) was added to each tumor tissue lysate. The lysate was combined with 250 μl methanol and mixed thoroughly. The sample was centrifuged 10 minutes at 15,000× g and the supernatant was removed and heated to 70° C. for g 10 minutes. […]
The entire 100 μl sample was then analyzed for the presence of FDNA:AVI-4126 duplex using reverse phase HPLC with fluorescence detection. The sample was injected into a Dionex DNAPac PA-100 column (4×250) using a Varian HPLC pump (model 9010 inert) equipped with a fluorescence detector and Al-200 autosampler (100 μl injector loop volume). […] The pump gradient program was 90% A+10% B (0 min) and 55% A+45% B (20 min.) at a flow rate of 1.5 ml/min with fluorescence detection at a 494 nm (excitation) and 518 nm emission wavelengths. […]

c-myc protein = assay: Immunoblot analysis of c-myc protein in LLC1 tumor lysates; assay type: in vivo, mouse; details: for effect on c-myc levels in tumor tissue (in words): compared to saline
Experimental: Immunoblot analysis of c-myc protein. All antibodies were obtained from Santa Cruz Biotechnology (Santa Cruz, Calif.). Three-hundred micrograms of LLC1 protein lysate was analyzed on a 5% SDS/acrylamide stacking gel with a 12% v/v sodium dodecylsulfate (SDS)/acrylamide separating gel. Gels were blotted, probed, and visualized according to standard Western blotting protocols. Membranes were probed with rabbit anti-mouse c-myc polyclonal antibodies N-262 (sc-764) or C-19 (sc-788) diluted 1:2000 in blocking buffer (Genotech) followed by goat-anti rabbit HRP-conjugated antibody (sc-2054). The relative amount of c-myc and actin protein was visualized by ECLplus (Amersham, Piscataway, N.J.) and analyzed on a Kodak 440 Image Station using 1 D Image Analysis software (Kodak, Rochester N.Y.). Membranes were then soaked in stripping buffer (Genotech) for 20 minutes at 25° C. and reprobed with a 1:2000 dilution of goat anti-mouse β-actin polyclonal antibody (sc-1616), which served as a protein loading control, followed by donkey anti-goat HRP-conjugated antibody (sc-2056).
An initial study was performed to determine AVI-4126 levels in the tumor and to evaluate sequence specific inhibition of c-myc protein levels. Tumor bearing mice 24 days post LLC1 transplant were given injections of either saline, AVI-4126 or scrambled control (100 μg/mouse IP). Tumors were excised 4 hours later and evaluated for AVI-4126 and analyzed by immunoblot for c-myc protein, as described below.
Animals were treated as described. Therapeutic efficacy was evaluated based on daily measurement of tumor area (length x width, cm^2) with digital calipers and tumor mass determined at the time of euthanization. Mice in all studies were euthanized by asphyxiation with CO2 on the final day of PMO treatments. Tumors were immediately removed, weighed and approximately 0.25 g tumor tissue was homogenized in 1.0 ml Tissue-PE lysis buffer (Genotech, St. Louis, Mo.) containing protease inhibitor cocktail tablets (Complete™ Mini EDTA-free, Boehringer-Mannheim) which were dissolved in the lysis buffer 30 minutes before tissue homogenization. Lysates were centrifuged at 15,000× g for 15 minutes at 4° C. and 150 μl aliquots of supernatant were combined 1:1 with electrophoresis sample buffer and boiled at 100° C. for 5 minutes.

[4] = single injection 100 μg/mouse IP, tumors excised 4 hours later, FIG. 5A

Row | Compound | Tumor Mass (gm ± STE) [1] [gm] | Tumor Growth Rate (TGR) [1] | % of Saline TGR [1] [%] | other results
1 | p21AS: control PMO, mouse p21 sequence: CATCACCAGGATTGGACATGG (antisense CATCACCAGGATTGGACATGG; all phosphorodiamidate morpholino (PMO)) | 1.260 ± 0.389 | 0.184 ± 0.030 | 90.2 | 
2 | AVI-4126: 20 base PMO antisense to c-myc translation start site: ACGTTGAGGGGCATCGTCGC (antisense ACGTTGAGGGGCATCGTCGC; all phosphorodiamidate morpholino (PMO)) | 1.788 ± 0.651 | 0.212 ± 0.031 | 103.9 | effect of AVI-4126 administration on platinum levels in tumor tissue [2]: did not effect platinum levels; FDNA:AVI-4126 duplex fluorescence peak in tumor tissue lysate [3]: readily detectable; degradation of AVI-4126 in tumor tissue [3]: No evidence of degradation; antitumor effect / tumor growth (in words) [1]: failed to significantly reduce tumor growth; inhibition of c-myc levels compared to saline control, n-terminal antibody (c-myc protein; band intensity normalized to β-actin, AVI-4126 alone 300 μg/mouse/day IP, FIG. 6A): 74%; inhibition of c-myc levels compared to saline control, c-terminal antibody (c-myc protein; band intensity normalized to β-actin, AVI-4126 alone 300 μg/mouse/day IP, FIG. 6B): 61%; reduction of c-myc levels relative to saline control (c-myc protein; [4]): 77%; reduction of c-myc levels relative to scrambled PMO control (c-myc protein; [4]): 63%
3 | RAD51AS: control PMO, mouse RAD51 sequence: CAAGCTGCATTTGCATAGCCAT (antisense CAAGCTGCATTTGCATAGCCAT; all phosphorodiamidate morpholino (PMO)) | 1.193 ± 0.166 | 0.198 ± 0.017 | 97.1 | 
4 | CC(=O)O[C@H]1C(=O)[C@@]2(C)[C@H]([C@H](OC(=O)c3ccccc3)[C@]3(O)C[C@H](OC(=O)[C@H](O)[C@@H](NC(=O)c4ccccc4)c4ccccc4)C(C)=C1C3(C)C)[C@]1(OC(C)=O)CO[C@@H]1C[C@@H]2O [Taxol, Paclitaxel] | 1.827 ± 0.210 | 0.234 ± 0.023 | 114.7 | 
5 | scrambled control PMO: c-myc antisense scramble control PMO: ACTGTGAGGGCGATCGCTGC (ACTGTGAGGGCGATCGCTGC; all phosphorodiamidate morpholino (PMO)) |  |  |  | effect on c-myc levels in tumor tissue (in words) (c-myc protein): no effect
6 | COc1cc([C@@H]2c3cc4c(cc3[C@@H](O[C@@H]3O[C@@H]5CO[C@@H](C)O[C@H]5[C@H](O)[C@H]3O)[C@H]3COC(=O)[C@H]23)OCO4)cc(OC)c1O [etoposide] | 0.970 ± 0.244 | 0.153 ± 0.025 | 75.0 | 
7 | N.N.[Cl][Pt][Cl] [cisplatin, cis-diamminedichloroplatinum] | 0.550 ± 0.081 | 0.101 ± 0.011 | 49.5 | necropsy appearance of tumors ([1]; cisplatin alone, and cisplatin plus co-administered AVI-4126): highly invasive and vascularized; antitumor effect / tumor growth (in words) [1]: significantly lower; effect on c-myc levels in tumor tissue (in words) (c-myc protein): no statistical difference
